Earlier results in patent US20050096390A1 (priority 2003, published 2005).

Key:
[1] = pH of 7.0
[2] = 160 mg fenofibrate tablets, typical average blood plasma sample

Row | SMILES | partition coefficient (octanol/water) [1] | solubility in acetone, acetonitrile, chloroform, and ether (acetone, acetonitrile, chloroform, ether) | solubility in isopropanol (isopropanol) | solubility in methanol (methanol) | solubility in water | AUC0-24 of fenofibrate [2]
1 | CC[C@H](C)C(=O)O[C@H]1C[C@H](O)C=C2C=C[C@H](C)[C@H](CC[C@@H](O)C[C@@H](O)CC(=O)[O-])[C@H]21.[Na+] (relative stereo) [Pravastatin sodium, 1-naphthalene-heptanoic acid, 1,2,6,7,8,8a-hexahydro-(beta),(beta),6-trihydroxy-2-methyl-8-(2-methyl-1-oxobutoxy)-, monosodium salt, [1S-[1(alpha)((beta)S*,(beta)S*),2(alpha),6(alpha), 8(beta)(R*),8a(alpha)]]-] | 0.59 | practically insoluble | slightly soluble | > 300 mg/mL | > 300 mg/mL | –
2 | CC[C@H](C)C(=O)O[C@H]1C[C@H](O)C=C2C=C[C@H](C)[C@H](CC[C@@H](O)C[C@@H](O)CC(=O)O)[C@H]21 [Pravastatin] | – | – | – | – | sparingly soluble | –
3 | CC(C)OC(=O)C(C)(C)Oc1ccc(C(=O)c2ccc(Cl)cc2)cc1 [Fenofibrate] | – | – | – | – | – | about 118,300 h·ng/mL
